# According to ChEMBL document CHEMBL3885881, “DrugMatrix”:
# Organism: Rattus norvegicus
# Test: DrugMatrix - Regimen: Daily Repeat
# Type: toxicity, organism-based, Sprague-Dawley
# Set-up: regimen Daily Repeat, gender Male, age 6-8 weeks
# Conditions: in vivo, po, route oral GAVAGE, […]; for ABSOLUTE BASOPHIL / ABSOLUTE EOSINOPHIL / ABSOLUTE LYMPHOCYTE / ABSOLUTE MONOCYTE / ABSOLUTE SEGMENTED NEUTROPHIL / BASOPHIL / EOSINOPHIL / ERYTHROCYTE COUNT / HEMATOCRIT / HEMOGLOBIN / LEUKOCYTE COUNT / LYMPHOCYTE / MEAN CORPUSCULAR HEMOGLOBIN / MEAN CORPUSCULAR HEMOGLOBIN CONCENTRATION / MEAN CORPUSCULAR VOLUME / MONOCYTE / NEUTROPHIL / NUCLEATED RED BLOOD CELLS / PLATELET COUNT: tissue Blood; for ALANINE AMINOTRANSFERASE / ALBUMIN / ALKALINE PHOSPHATASE / ASPARTATE AMINOTRANSFERASE / BLOOD UREA NITROGEN / CARBON DIOXIDE / CHLORIDE / CHOLESTEROL / CREATINE PHOSPHOKINASE / CREATININE / GLUCOSE / LACTATE DEHYDROGENASE / LIPASE / PHOSPHORUS / POTASSIUM / SODIUM / TOTAL BILIRUBIN / TOTAL PROTEIN / URIC ACID: tissue Plasma
# [1] = 12 mg/kg, 120 h, dose level Low, time 5 day
# [2] = 75 mg/kg, 72 h, dose level High, time 3 day
# [3] = 75 mg/kg, 120 h, dose level High, time 5 day
compound,measurement,setting,value
CO[C@H]1/C=C/O[C@@]2(C)Oc3c(C)c(O)c4c(O)c(c(/C=N/N5CCN(C6CCCC6)CC5)c(O)c4c3C2=O)NC(=O)/C(C)=C\C=C\[C@H](C)[C@H](O)[C@@H](C)[C@@H](O)[C@@H](C)[C@H](OC(C)=O)[C@@H]1C [RIFAPENTINE],ABSOLUTE BASOPHIL,[1],0 CELLS/uL
same,ABSOLUTE EOSINOPHIL,[1],0 CELLS/uL
same,ABSOLUTE LYMPHOCYTE,[1],14120.67 CELLS/uL
same,ABSOLUTE MONOCYTE,[1],159.67 CELLS/uL
same,ABSOLUTE SEGMENTED NEUTROPHIL,[1],1686.33 CELLS/uL
same,BASOPHIL,[1],0%
same,EOSINOPHIL,[1],0%
same,ERYTHROCYTE COUNT,[1],5.71 x10E6/uL
same,HEMATOCRIT,[1],35.8%
same,HEMOGLOBIN,[1],13.33 G/DL
same,LEUKOCYTE COUNT,[1],15.97 x10E3/uL
same,LYMPHOCYTE,[1],88.33%
same,MEAN CORPUSCULAR HEMOGLOBIN,[1],23.4 pg
same,MEAN CORPUSCULAR HEMOGLOBIN CONCENTRATION,[1],37.3 G/DL
same,MEAN CORPUSCULAR VOLUME,[1],62.73 fL
same,MONOCYTE,[1],1%
same,NEUTROPHIL,[1],10.67%
same,NUCLEATED RED BLOOD CELLS,[1],0 /100WBC
same,PLATELET COUNT,[1],1349 x10E3/uL
same,ALANINE AMINOTRANSFERASE,[1],49.33 u/L
same,ALBUMIN,[1],4.07 G/DL
same,ALKALINE PHOSPHATASE,[1],549.33 u/L
same,ASPARTATE AMINOTRANSFERASE,[1],91.67 u/L
same,BLOOD UREA NITROGEN,[1],16 mg/dL
same,CARBON DIOXIDE,[1],28 mmol/L
same,CHLORIDE,[1],102.67 MEQ/L
same,CHOLESTEROL,[1],54.33 mg/dL
same,CREATINE PHOSPHOKINASE,[1],385.33 u/L
same,CREATININE,[1],0.16 mg/dL
same,GLUCOSE,[1],167.67 mg/dL
same,LACTATE DEHYDROGENASE,[1],391.67 u/L
same,LIPASE,[1],9.67 u/L
same,PHOSPHORUS,[1],11.2 mg/dL
same,POTASSIUM,[1],6.39 MEQ/L
same,SODIUM,[1],142.5 MEQ/L
same,TOTAL BILIRUBIN,[1],0.3 mg/dL
same,TOTAL PROTEIN,[1],5.9 G/DL
same,URIC ACID,[1],1.7 mg/dL
same,ABSOLUTE BASOPHIL,[2],0 CELLS/uL
same,ABSOLUTE EOSINOPHIL,[2],0 CELLS/uL
same,ABSOLUTE LYMPHOCYTE,[2],7973.67 CELLS/uL
same,ABSOLUTE MONOCYTE,[2],130.33 CELLS/uL
same,ABSOLUTE SEGMENTED NEUTROPHIL,[2],596 CELLS/uL
same,BASOPHIL,[2],0%
same,EOSINOPHIL,[2],0%
same,ERYTHROCYTE COUNT,[2],5.11 x10E6/uL
same,HEMATOCRIT,[2],32.07%
same,HEMOGLOBIN,[2],12.17 G/DL
same,LEUKOCYTE COUNT,[2],8.7 x10E3/uL
same,LYMPHOCYTE,[2],92%
same,MEAN CORPUSCULAR HEMOGLOBIN,[2],23.8 pg
same,MEAN CORPUSCULAR HEMOGLOBIN CONCENTRATION,[2],37.97 G/DL
same,MEAN CORPUSCULAR VOLUME,[2],62.73 fL
same,MONOCYTE,[2],1.33%
same,NEUTROPHIL,[2],6.67%
same,NUCLEATED RED BLOOD CELLS,[2],0 /100WBC
same,PLATELET COUNT,[2],1158.67 x10E3/uL
same,ALANINE AMINOTRANSFERASE,[2],71.33 u/L
same,ALBUMIN,[2],4.07 G/DL
same,ALKALINE PHOSPHATASE,[2],536.33 u/L
same,ASPARTATE AMINOTRANSFERASE,[2],84.33 u/L
same,BLOOD UREA NITROGEN,[2],11 mg/dL
same,CARBON DIOXIDE,[2],29.33 mmol/L
same,CHLORIDE,[2],104.33 MEQ/L
same,CHOLESTEROL,[2],73 mg/dL
same,CREATINE PHOSPHOKINASE,[2],243 u/L
same,CREATININE,[2],0.1 mg/dL
same,GLUCOSE,[2],158.33 mg/dL
same,LACTATE DEHYDROGENASE,[2],88 u/L
same,LIPASE,[2],8.67 u/L
same,PHOSPHORUS,[2],11.53 mg/dL
same,POTASSIUM,[2],6.14 MEQ/L
same,SODIUM,[2],147.17 MEQ/L
same,TOTAL BILIRUBIN,[2],0.6 mg/dL
same,TOTAL PROTEIN,[2],5.77 G/DL
same,URIC ACID,[2],1.13 mg/dL
same,ABSOLUTE BASOPHIL,[3],0 CELLS/uL
same,ABSOLUTE EOSINOPHIL,[3],83.33 CELLS/uL
same,ABSOLUTE LYMPHOCYTE,[3],14410.33 CELLS/uL
same,ABSOLUTE MONOCYTE,[3],288.33 CELLS/uL
same,ABSOLUTE SEGMENTED NEUTROPHIL,[3],1718 CELLS/uL
same,BASOPHIL,[3],0%
same,EOSINOPHIL,[3],0.67%
same,ERYTHROCYTE COUNT,[3],6.37 x10E6/uL
same,HEMATOCRIT,[3],38.63%
same,HEMOGLOBIN,[3],14 G/DL
same,LEUKOCYTE COUNT,[3],16.5 x10E3/uL
same,LYMPHOCYTE,[3],87%
same,MEAN CORPUSCULAR HEMOGLOBIN,[3],21.97 pg
same,MEAN CORPUSCULAR HEMOGLOBIN CONCENTRATION,[3],36.2 G/DL
same,MEAN CORPUSCULAR VOLUME,[3],60.67 fL
same,MONOCYTE,[3],1.67%
same,NEUTROPHIL,[3],10.67%
same,NUCLEATED RED BLOOD CELLS,[3],0 /100WBC
same,PLATELET COUNT,[3],1299.67 x10E3/uL
same,ALANINE AMINOTRANSFERASE,[3],72 u/L
same,ALBUMIN,[3],4.13 G/DL
same,ALKALINE PHOSPHATASE,[3],446.67 u/L
same,ASPARTATE AMINOTRANSFERASE,[3],99.33 u/L
same,BLOOD UREA NITROGEN,[3],13.67 mg/dL
same,CARBON DIOXIDE,[3],27.67 mmol/L
same,CHLORIDE,[3],101 MEQ/L
same,CHOLESTEROL,[3],39 mg/dL
same,CREATINE PHOSPHOKINASE,[3],886.67 u/L
same,CREATININE,[3],0.13 mg/dL
same,GLUCOSE,[3],164 mg/dL
same,LACTATE DEHYDROGENASE,[3],219.67 u/L
same,LIPASE,[3],7.67 u/L
same,PHOSPHORUS,[3],11.07 mg/dL
same,POTASSIUM,[3],6.28 MEQ/L
same,SODIUM,[3],141.1 MEQ/L
same,TOTAL BILIRUBIN,[3],0.4 mg/dL
same,TOTAL PROTEIN,[3],5.87 G/DL
same,URIC ACID,[3],1.47 mg/dL
